Source: patent publication US8822517B2, “Arylosulfonamides for the treatment of CNS diseases” (Adamed SP. Z O.O., priority 2010, dated 2014)
Read-outs that look alike come from different tables or passages of the source. Marks after values point to notes of the source that are not given here.

What was measured:
[1] = target: hERG potassium channels (Homo sapiens, UniProt Q12809); experiment: hERG potassium channel block, electrophysiology (IonWorks Quattro), CHO cells
Protocol: Ability to block hERG potassium channels was determined using the electrophysiological method and cloned hERG potassium channels (KCNH2 gene, expressed in CHO cells) as biological material. The effects were evaluated using IonWorks™ Quattro system (MDS-AT).
hERG current was elicited using a pulse pattern with fixed amplitudes (conditioning prepulse: −80 mV for 25 ms; test pulse: +40 mV for 80 ms) from a holding potential of 0 mV. hERG current was measured as a difference between the peak current at 1 ms after the test step to +40 mV and the steady-state current at the end of the step to +40 mV.
Data acquisition and analyses was performed using the IonWorks Quattro™ system operation software (version 2.0.2; Molecular Devices Corporation, Union City, Calif.). Data were corrected for leak current.

[2] = target: T1, adrenergic α2C receptor (Homo sapiens, UniProt P18825); experiment: Binding assay α2C (h), [3H]RX 821002, CHO cells; design: expressed in transfected cells; host or cells: CHO cells; conditions: read-out: α2C [%]
T1 sequence (P18825 1-462): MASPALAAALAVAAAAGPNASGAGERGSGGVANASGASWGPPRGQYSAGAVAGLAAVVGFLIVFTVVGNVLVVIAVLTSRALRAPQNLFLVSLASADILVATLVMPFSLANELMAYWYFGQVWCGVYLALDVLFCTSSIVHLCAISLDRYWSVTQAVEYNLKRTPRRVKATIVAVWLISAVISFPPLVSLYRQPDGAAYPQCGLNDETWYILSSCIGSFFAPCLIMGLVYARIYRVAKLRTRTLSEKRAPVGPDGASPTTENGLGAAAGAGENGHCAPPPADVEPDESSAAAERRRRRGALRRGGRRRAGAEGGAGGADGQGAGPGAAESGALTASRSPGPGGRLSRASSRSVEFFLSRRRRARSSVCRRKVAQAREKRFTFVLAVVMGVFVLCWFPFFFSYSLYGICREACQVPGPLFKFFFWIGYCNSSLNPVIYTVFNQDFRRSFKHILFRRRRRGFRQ
Procedure, shortened: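 Detection relied on scintillation counting of bound ligand. Compounds at 1×10^−6 M were evaluated against specific binding, i.e. total binding corrected for the nonspecific fraction seen with excess unlabelled ligand.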

[3] = target: T2, histaminergic receptor (Cavia porcellus, UniProt P31389); experiment: Guinea-pig ileum test, antagonism of histamine contraction; conditions: antagonistic activity towards histaminergic receptor, agonist histamine, read-out: H ant** (pKb) (converted)
T2 construct: Terminal ileum was dissected and placed into a Krebs solution; from tissue; host or cells: guinea-pig terminal ileum segments (organ bath)
Protocol: Ileum was prepared from male guinea-pigs with 300-350 g of body weight, fasted for 24 h before experiment with free access to drinking water. Terminal ileum was dissected and placed into a Krebs solution (NaCl 120 mM, KCl 5.6 mM, MgCl2 2.2 mM, CaCl2 2.4 mM, NaHCO3 19 mM, glucose 10 mM) and 2 cm-long fragments were cut. Each segment of the gut was placed in 30 ml chamber filled with the Krebs solution at 37 C, pH 7.4, with constant oxygenation (O2/CO2, 19:1), fixed by the lower end to a glass rod and by the upper end to the force-displacement transducer FDT 10-A (Biopac Systems, COMMAT, Ltd., Turkey). The preparation was allowed to stabilize in organ baths for 60 min under a resting tension of 0.5 g, washing every 15 min with fresh Krebs solution. All responses were recorded using software Biopac Systems Inc MP-35 Data Acquisition, Turkey.
In next step, stock solutions were diluted 10× in water.
The equilibration period a cumulative concentration-response curve was constructed in so each tissue for respective agonist—carbachol (3×10^−9−3×10^−6 M) or histamine (10^−8-10^−5 M) by the method of van Rossum (Ref. 24). Following the first agonist curve, tissues were incubated with one of the concentrations of tested compounds for 15 min and the next cumulative concentration curve to agonist was obtained. Only one concentration of the antagonist was tested in each piece of tissue. Experiments were repeated three to eight times.
After the equilibration period a cumulative concentration-response curve was constructed in each tissue for histamine (10^−8-10^−5 M) by the method of van Rossum. Following the first histamine curve, tissues were incubated with one of the concentrations of tested compounds for 15 min and the next cumulative concentration curve to histamine was obtained. Only one concentration of the antagonist was tested in each piece of tissue. Experiments were repeated three to seven times.
Concentration-response curves were analysed using GraphPad Prism 4.0 (GraphPad Software Inc., San Diego, Calif., USA). […]

[4] = test system: mice; experiment: d-Amphetamine-induced locomotor hyperactivity in mice; conditions: for MED*: minimum effective dose, d-amphetamine-induced locomotor hyperactivity, i.p.
Protocol: (§1) All the experiments were performed by two observers unaware of the treatment applied between 9:00 and 14:00 on separate groups of animals. All animals were used only once and were killed immediately after the experiment.
The locomotor activity was recorded with an Opto M3 multi-channel activity monitor (MultiDevice Software v. 1.3, Columbus Instruments). The mice were individually placed in plastic cages (22×12×13 cm) for 30 minutes habituation period, and then the crossings of each channel (ambulation) were counted during 1 h with data recording every 5 minutes. The cages were cleaned up with 70% ethanol after each mouse. Drugs were administered to 10 mice per treatment group. d-Amphetamine was administered 30 minutes before the test.
(§2) An injection volume of 10 ml/kg (mice) or 2 ml/kg (rats) was used throughout and all compounds were administered intraperitoneally (i.p.), except d-amphetamine that was given subcutaneously (s.c.).
All the data are expressed as the mean±SEM. The statistical significance of effects was evaluated using separate one-way analysis of variance (ANOVA) with comparison between individual groups by Dunnett's test (when only one drug was given) or by the Tukey's test when two drugs were used; p<0.05, p<0.01 and p<0.001 were considered statistically significant. ED50 values were calculated using Graph Pad Prism 5 Software.

[5] = test system: Wistar rats; experiment: Passive avoidance procedure in rats; conditions: passive-avoidance (model of memory disturbance)
Excerpt: (§3) Drug-naive male Wistar rats (Charles River, Sulzfeld, Germany) weighing 250-400 g were used in all experiments. Rats were housed two per standard plastic cage and kept in a room with constant environmental conditions (21-22′C, relative humidity 60%, a 12:12 light-dark cycle with lights on at 7:00 a.m.). Animals were supplied by the breeder two weeks before the onset of behavioral procedures. During this time, the subjects were weighed and handled several times. Tap water and standard lab chow (Labofeed H, WPIK, Kcynia, Poland) was available ad libitum.
Potentially impairing effects of test substance on learning and memory function in rats were evaluated using a step-through passive avoidance (PA) test. […]
In the training session (acquisition), animals were placed in the lighted compartment and allowed to explore it freely for 10 s. The sliding door was then opened, and the step-through latency for a rat to enter the dark compartment was measured. […]
The test (expression) session was performed 24 h after the training session. […] A step-through latency for animals to enter the dark compartment was measured with a cut-off of 300 s.
Weights and step-trough latencies were analyzed with the aid of a one-way analysis of variance (ANOVA). […]

[6] = test system: Wistar rats; experiment: Conflict drinking test (Vogel test) in rats; assay type: in vivo
Excerpt: Recording data started immediately after the first lick and every 20 licks rats were punished with an electric shock (0.5 mA, lasting 1 s). […] If a rat was drinking when an impulse was released, it received a shock.

[7] = test system: Wistar rats; experiment: Conditioned avoidance response (CAR) in rats
Protocol: as §2
Rats trained to avoid the foot shock were placed in the experimental chambers for a 3 min. habituation period followed by 50 CAR trials presented on a 15-s variable interval (VI) schedule. Each trial consisted of a 10 s warning tone and stimulus light (conditioned stimulus) followed by 10 s electric shock (0.5 mA). If during the initial 10 s of the trial an animal crossed through the sliding door, the tone and light were terminated, no shock was applied, and the response was considered as “an avoidance response”. If the animal crossed through the sliding door after a foot shock was initiated, the response was considered as an escape response. […] If a response was made during an intertrial interval, it was punished with 0.5 s shock (0.5 mA). […] On test days, a tested drug was administered i.p. 60 minutes before the start of the test session. Each drug was tested at 3-4 different doses in the same group of eight animals. A 7-day wash-out period was introduced between the subsequent tests. […]
Avoidances, escapes, and “none” responses were analyzed with the aid of a one-way analysis of variance (ANOVA). […]

[8] = test system: Swiss mice; experiment: Four-plate test in Swiss mice; assay type: in vivo
[9] = test system: mice; experiment: MK-801-induced locomotor hyperactivity in mice
Protocol: as §1
The locomotor activity was recorded with an Opto M3 multi-channel activity monitor (MultiDevice Software v. 1.3, Columbus Instruments). The mice were individually placed in plastic cages (22×12×13 cm) for 30 minutes habituation period, and then the crossings of each channel (ambulation) were counted during 1 h with data recording every 5 minutes. The cages were cleaned up with 70% ethanol after each mouse.
The locomotor activity was recorded according to method described above.
as §2
All the data are expressed as the mean±SEM. The statistical significance of effects was evaluated using separate one-way analysis of variance (ANOVA) with comparison between individual groups by Dunnett's test (when only one drug was given) or by the Tukey's test when two drugs were used; p<0.05, p<0.01 and p<0.001 were considered statistically significant.

[10] = test system: Wistar rats; experiment: Elevated plus maze test in rats
Protocol: as §1
Floor of the plus-maze was made of infrared transparent material what means that there are no visible sensors. The plus-maze was placed in a darkened room, and the center of the apparatus was illuminated with a 25 W electric bulb hanging 100 cm above. Plus-maze apparatus was connected to PC software by control chassis. Each rat was gently placed in the center of the plus-maze, facing one of the closed arms, immediately after a 5-min adaptation period in a plastic black box (60×60×35 cm). During a 5-minutes test period, automated Motor Monitor System recorded the number of entries into the closed and open arms, the time spent in and the distance (cm) covered by a rat in either type of the arms. After each trial the maze was wiped clean. All compounds were administered to 5-8 rats per treatment group.

[11] = test system: Wistar rats; experiment: MK-801-induced stereotyped behaviour in rats; conditions: MK-801-induced stereotyped behaviour (glutamate-related psychosis model)
Excerpt: as §3, §2
All tests were carried out in a sound-attenuated experimental room between 9:00 a.m. and 3:00 p.m. Within 24 h prior to testing, rats were habituated to glass observation cages (25×25×40 cm, W×H×L) with wood chip bedding on the floor for 20 min. […] Views of other rats in the experiment were prohibited. Fifteen minutes later, the time spent circling/head waving was recorded by a trained observer for 5 min. […] Rats were pre-injected with a test drug 60 min. before the start of the observation period.
The duration of stereotyped circling was analyzed with the aid of the Kruskal-Wallis analysis of variance (ANOVA). […]

[12] = test system: Wistar rats; experiment: Forced swimming test (Porsolt's test) in rats; assay type: in vivo
Excerpt: as §3, §2
The animals were individually subjected to two experimental trials during which they were forced to swim in a cylinder (40 cm high, 18 cm in diameter) filled with warm water (25° C.) to a height of 15 cm. A video camera was mounted 50 cm above the cylinder. The first (habituation) and second (test) trial lasted 15 and 5 minutes, respectively. There was a 24-h interval between the trials. The total duration of immobility was measured during the second trial by a trained observer located in a separate room.
Weights and time of immobility were analyzed with the aid of a one-way analysis of variance (ANOVA). […]

[13] = test system: Wistar rats; experiment: Amphetamine-induced PPI deficits in rats
Excerpt: as §3, §2
The PPI apparatus consisted of eight startle chambers (SR-LAB, San Diego Instruments, San Diego, Calif., USA). […] Startle responses, reflecting the motion of animals in the cylinder so following the acoustic stimulus, were detected by a piezoelectric transducer mounted below the frame. […]
This interval was randomized by the SR-LAB software. Startle responses were measured for 100 ms after the onset of the last trial stimulus. […]
Startle responses (in manufacturer's arbitrary units), and magnitudes of PPI (%) were analyzed with the aid of a one-way analysis of variance (ANOVA). […]

[14] = test system: Wistar rats; experiment: 2,5-Dimethoxy-4-iodoamphetamine (DOI)-induced head twitches in rats
Excerpt: as §3, §2
All tests were carried out in a sound-attenuated experimental room between 9:00 a.m. and 3:00 p.m. as described above for spontaneous head twitches. […] Rats were pre-injected i.p. with a test drug 60 min. before the start of the test session. […] Five minutes later, head twitches were counted for 5 minutes. (300 s) by a trained observer.
Total numbers of head twitches (n/5 min.) were analyzed by means of the Kruskal-Wallis analysis of variance (ANOVA). The Mann-Whitney U test was used for individual post hoc comparisons.

[15] = test system: Wistar rats; experiment: Apomorphine-induced stereotyped behaviour in rats
Excerpt: as §3, §2
All tests were carried out in a sound-attenuated experimental room between 9:00 a.m. and 3:00 p.m. Within 24 h prior to testing, rats were habituated to glass observation so cages (25×25×40 cm, W×H×L) with wood chip bedding on the floor for 20 min. […] Rats were injected with apomorphine (0.6 mg/kg) and placed in the observation cages. […] Twenty minutes later, the time spent licking/biting and sniffing downward was recorded by a trained observer for 5 minutes (300 s). […]
The duration of stereotyped sniffing and licking/biting was analyzed with the aid of the Kruskal-Wallis analysis of variance (ANOVA). […]

[16] = target: serotoninergic 5-HT2C receptor (Homo sapiens, UniProt P28335); experiment: Cellular functional assay, serotoninergic 5-HT2C receptor (agonism/antagonism); assay type: cell-based; conditions: agonist effect, percent of control specific agonist response; 1×10^−6M
Protocol: The compounds were tested at the concentration of 1×10^−6M.
In the Tables ag refers to agonism, and antag to antagonism).

[17] = % block of hERG current, cloned hERG channels in CHO cells, IonWorks Quattro

Chain of hERG potassium channels (Q12809 whole entry): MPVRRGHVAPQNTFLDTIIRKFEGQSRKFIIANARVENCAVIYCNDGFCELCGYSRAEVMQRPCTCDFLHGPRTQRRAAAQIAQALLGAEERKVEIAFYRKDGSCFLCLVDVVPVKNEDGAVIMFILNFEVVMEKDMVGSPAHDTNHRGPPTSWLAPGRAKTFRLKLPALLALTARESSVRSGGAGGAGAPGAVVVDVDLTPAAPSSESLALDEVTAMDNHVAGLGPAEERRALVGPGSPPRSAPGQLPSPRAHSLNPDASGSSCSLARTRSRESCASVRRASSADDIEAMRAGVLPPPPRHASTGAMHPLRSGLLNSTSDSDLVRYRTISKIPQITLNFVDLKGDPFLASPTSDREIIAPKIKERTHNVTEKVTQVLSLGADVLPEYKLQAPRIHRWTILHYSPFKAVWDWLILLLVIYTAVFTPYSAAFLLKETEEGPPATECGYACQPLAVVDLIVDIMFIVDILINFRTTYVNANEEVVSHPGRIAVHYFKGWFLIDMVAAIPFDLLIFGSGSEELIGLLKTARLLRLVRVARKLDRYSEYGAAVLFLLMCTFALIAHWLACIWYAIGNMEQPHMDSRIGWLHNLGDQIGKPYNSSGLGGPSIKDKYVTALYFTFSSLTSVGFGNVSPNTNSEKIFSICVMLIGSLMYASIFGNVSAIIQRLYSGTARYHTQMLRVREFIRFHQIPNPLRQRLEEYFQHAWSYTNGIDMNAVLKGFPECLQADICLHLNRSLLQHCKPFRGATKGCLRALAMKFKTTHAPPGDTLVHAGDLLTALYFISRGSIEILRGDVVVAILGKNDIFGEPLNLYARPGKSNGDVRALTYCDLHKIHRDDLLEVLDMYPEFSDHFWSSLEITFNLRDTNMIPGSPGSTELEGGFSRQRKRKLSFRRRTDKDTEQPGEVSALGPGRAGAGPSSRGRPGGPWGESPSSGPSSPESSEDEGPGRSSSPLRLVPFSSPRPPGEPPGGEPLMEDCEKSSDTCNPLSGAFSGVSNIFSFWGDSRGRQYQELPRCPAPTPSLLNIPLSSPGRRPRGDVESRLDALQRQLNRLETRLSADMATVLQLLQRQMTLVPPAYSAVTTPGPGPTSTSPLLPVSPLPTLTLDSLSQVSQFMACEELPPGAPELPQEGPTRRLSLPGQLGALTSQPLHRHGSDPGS
T2 sequence (P31389 whole entry): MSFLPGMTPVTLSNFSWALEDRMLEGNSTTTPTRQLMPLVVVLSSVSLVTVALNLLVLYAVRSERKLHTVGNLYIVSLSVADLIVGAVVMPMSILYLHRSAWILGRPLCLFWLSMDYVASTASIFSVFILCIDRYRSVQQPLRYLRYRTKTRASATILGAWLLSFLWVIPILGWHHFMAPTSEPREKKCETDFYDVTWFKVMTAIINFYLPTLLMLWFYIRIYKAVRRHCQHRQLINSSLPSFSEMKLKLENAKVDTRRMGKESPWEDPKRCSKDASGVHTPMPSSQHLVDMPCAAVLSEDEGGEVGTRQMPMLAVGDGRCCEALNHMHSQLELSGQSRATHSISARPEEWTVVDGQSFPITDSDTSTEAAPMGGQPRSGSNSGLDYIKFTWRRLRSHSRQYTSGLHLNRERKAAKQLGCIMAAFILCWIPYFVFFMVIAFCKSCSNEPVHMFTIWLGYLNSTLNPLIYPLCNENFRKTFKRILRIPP
Chain of serotoninergic 5-HT2C receptor (P28335 33-458): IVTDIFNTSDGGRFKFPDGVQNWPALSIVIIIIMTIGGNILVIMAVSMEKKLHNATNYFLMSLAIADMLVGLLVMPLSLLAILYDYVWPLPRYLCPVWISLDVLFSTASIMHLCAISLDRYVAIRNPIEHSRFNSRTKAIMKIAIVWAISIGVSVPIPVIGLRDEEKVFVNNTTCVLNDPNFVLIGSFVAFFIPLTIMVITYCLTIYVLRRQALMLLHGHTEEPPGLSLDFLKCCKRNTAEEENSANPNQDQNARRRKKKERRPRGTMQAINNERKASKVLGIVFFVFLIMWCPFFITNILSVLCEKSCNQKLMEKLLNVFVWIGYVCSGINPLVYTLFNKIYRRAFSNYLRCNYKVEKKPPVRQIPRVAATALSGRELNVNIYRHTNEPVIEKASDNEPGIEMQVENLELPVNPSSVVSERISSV

In the case of O=S(=O)(NCCCCN1CCN(c2nsc3ccccc23)CC1)c1cccc2ccccc12 [Compound 1, N-(4-(4-(1,2-Benzothiazol-3-yl)piperazin-1-yl)butyl)naphthalene-1-sulphonamide], the “hERG [%]” value [1, 17] is reported as 16%, the inhibition at 1 µM [2] is reported as 100% and the Kb [3] is reported as 498 nM.
In the case of O=S(=O)(NCCCCN1CCN(c2nsc3ccccc23)CC1)c1ccc2ccccc2c1 [Compound 2, N-(4-(4-(1,2-Benzothiazol-3-yl)piperazin-1-yl)butyl)naphthalene-2-sulphonamide], the “hERG [%]” value [1] is reported as 14%, the inhibition at 1 µM [2] is reported as 101% and the Kb [3] is reported as 457 nM. For the same molecule, the “MED*” value [4] was 5 mg/kg.
In the case of Cc1cccc(S(=O)(=O)NCCCCN2CCN(c3nsc4ccccc34)CC2)c1 [Compound 3, N-(4-(4-(1,2-Benzothiazol-3-yl)piperazin-1-yl)butyl)-3-methylbenzenesulphonamide], the “hERG [%]” value [1] is reported as 17%, the inhibition at 1 µM [2] is reported as 99% and the Kb [3] is reported as 148 nM.
Cc1cccc(S(=O)(=O)NCCCN2CCN(c3nsc4ccccc34)CC2)c1 [Compound 7, N-(3-(4-(1,2-Benzothiazol-3-yl)piperazin-1-yl)propyl)-3-methylbenzenesulphonamide] was tested, and the “hERG [%]” value [1, 17] was 14%, the inhibition at 1 µM [2] was 96% and the “MED*” value [4] was 2 mg/kg.
With O=S(=O)(NCCCCN1CCC(c2noc3cc(F)ccc23)CC1)c1ccc2ccccc2c1 [Compound 18, N-[4-[4-(6-Fluoro-1,2-benzoxazol-3-yl)piperidin-1-yl]butyl]naphthalene-2-sulphonamide] the “hERG [%]” value [1, 17] was 30%, the inhibition at 1 µM [2] was 100% and the “MED*” value [4] was 2.5 mg/kg.
With Cc1cccc(S(=O)(=O)NCCCN2CCC(c3noc4cc(F)ccc34)CC2)c1 [Compound 22, N-[3-[4-(6-Fluoro-1,2-benzoxazol-3-yl)piperidin-1-yl]propyl]-3-methylbenzenesulphonamide] the “MED” value [5] was over 30 mg/kg, the “MED” value ([6]; Vogel test (potential anxiolytic activity)) was 3 mg/kg and the “activity in conflict drinking test (Vogel) in rats” value ([6]; anxiolytic model) was “active”. The “activity in active avoidance response” value [7] was “active”, the “MED” value ([7]; active-avoidance response (model of positive symptoms of schizophrenia)) was 3 mg/kg and the “MED” value ([8]; four-plate test in mice) was 0.312 mg/kg. For the same molecule, the “activity in four plates test in mice” value ([8]; mice, anxiolytic model) was “active”, the “hERG [%]” value [1, 17] was 52% and the “activity in MK-801 induced hyperlocomotion” value [9] was “active”. For the same molecule, the “MED*” value ([9]; minimum effective dose, MK-801-induced locomotor hyperactivity, i.p.) was 1.25 mg/kg, the “activity in elevated plus maze” value ([10]; anxiolytic model) was “active” and the “MED [mg/kg]” value ([10]; elevated plus-maze (potential anxiolytic activity)) was ≤ 0.3 * mg/kg. The inhibition at 1 µM [2] was 100%, the “MED” value [11] was 3 mg/kg and the “MED” value ([12]; Porsolt forced swim test (potential antidepressant activity)) was 0.3 mg/kg. The “activity in forced swim test (Porsolt) in rats” value ([12]; antidepressant model) was “active”, the “activity in reversal of deficits in prepulse inhibition in rats” value [13] was “active” and the “MED” value ([13]; prepulse inhibition disruption caused by amphetamine administration) was 30 mg/kg. For the same molecule, the “activity in stereotyped behavior induced by DOI” value [14] was “active”, the “MED [mg/kg]” value ([14]; DOI-induced head twitches (serotonin-related psychosis model)) was ≤ 1 * mg/kg and the “activity in stereotyped behavior induced by apomorphine” value [15] was “active”. For the same molecule, the “MED” value ([15]; apomorphine-induced stereotyped behaviour (dopamine-related psychosis model)) was 10 mg/kg, the “activity in d-amphetamine induced hyperlocomotion” value [4] was “active” and the “MED*” value [4] was 2.5 mg/kg.
For Cc1c(S(=O)(=O)NCCCCN2CCN(c3nsc4ccccc34)CC2)sc2ccc(F)cc12 [Compound 65, N-[4-[4-(1,2-Benzothiazol-3-yl)piperazin-1-yl]butyl]-5-fluoro-3-methylbenzothiophene-2-sulphonamide], the inhibition at 1 µM [2] was 104% and the “5-HT2C -ag [%]” value [16] was 0%.
With O=S(=O)(NCCCCN1CCC(c2noc3cc(F)ccc23)CC1)c1ccc2cc(Cl)ccc2c1 [Compound 97, 6-Chloro-N-[4-[4-(6-fluoro-1,2-benzoxazol-3-yl)piperidin-1-yl]butyl]naphthalene-2-sulphonamide] the inhibition at 1 µM [2] was 100% and the “MED*” value [4] was 2.5 mg/kg.
For O=S(=O)(NCCCCN1CCN(c2nsc3ccccc23)CC1)c1cc2ccc(Cl)cc2s1 [Compound 241, N-[4-[4-(1,2-Benzothiazol-3-yl)piperazin-1-yl]butyl]-6-chlorobenzothiophene-2-sulphonamide], the inhibition at 1 µM [2] was 98% and the “5-HT2C -ag [%]” value [16] was −4%.
